Laboratory results from PubChem BioAssay AID652218 (The Scripps Research Institute Molecular Screening Center, 2013).
Active and inactive are the calls of the source.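 How the source made its calls: active means inhibition of the phosphatase PP1 of at least 70% at 50 µM; inactive means the rest.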

These compounds were tested against Serine/threonine-protein phosphatase PP1-alpha catalytic subunit (Homo sapiens) (UniProt P62136) (assay: PP1 inhibitors, OMFP dephosphorylation, confirmation, biochemical, fluorescence, OMFP substrate, powder samples, set 2 (AID 652218)). Settings: purified PP1alpha, at 50 µM, active compounds read high.
Serine/threonine-protein phosphatase PP1-alpha catalytic subunit (Homo sapiens), sequence (P62136 whole entry, looked up): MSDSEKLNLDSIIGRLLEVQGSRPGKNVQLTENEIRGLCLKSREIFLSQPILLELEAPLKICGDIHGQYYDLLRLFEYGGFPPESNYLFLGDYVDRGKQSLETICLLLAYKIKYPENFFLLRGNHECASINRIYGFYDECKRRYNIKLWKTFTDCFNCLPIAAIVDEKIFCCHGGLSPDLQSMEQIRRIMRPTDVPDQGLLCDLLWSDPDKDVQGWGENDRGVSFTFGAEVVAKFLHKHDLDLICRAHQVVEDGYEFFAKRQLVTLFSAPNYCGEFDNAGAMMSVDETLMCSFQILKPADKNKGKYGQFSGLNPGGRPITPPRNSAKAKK

Row | Structure (SMILES) | inhibition
1 | Oc1c(C(c2ccccn2)N2CCN(c3ccccc3F)CC2)cc(Cl)c2cccnc12 (stereo unspecified) | 101%
2 | Cc1ccc(C(c2ccc3cccnc3c2O)N2CCN(C)CC2)nc1 (stereo unspecified) | 104%
3 | COc1cccc(C(c2ccc3cccnc3c2O)N2CCN(C)CC2)n1 (stereo unspecified) | 107%
4 | COc1ccc(C(c2ccc3cccnc3c2O)N2CCN(C)CC2)nc1 (stereo unspecified) | 97.9%
5 | Cc1cccc(C(c2ccc3cccnc3c2O)N2CCN(C)CC2)n1 (stereo unspecified) | 103%
6 | Oc1c(C(c2ccccn2)N2CCOCC2)cc(Cl)c2cccnc12 (stereo unspecified) | 105%
7 | CCN1CCN(C(c2ccccn2)c2cc(Cl)c3cccnc3c2O)CC1 (stereo unspecified) | 98.4%
8 | CN1CCN(C(c2ccc(C(F)(F)F)cn2)c2ccc3cccnc3c2O)CC1 (stereo unspecified) | 99.8%
9 | CN1CCN(C(c2cccnc2)c2cc(Cl)c3cccnc3c2O)CC1 (stereo unspecified) | 40% (inactive)
10 | CN1CCC(NC(c2ccccn2)c2ccc3cccnc3c2O)CC1 (stereo unspecified) | 97.3%
11 | CN1CCN(C(c2ccccc2)c2cc(Cl)c3cccnc3c2O)CC1 (stereo unspecified) | 79.1%
12 | CN1CCN(C(c2ccccn2)c2cc(Cl)ccc2O)CC1 (stereo unspecified) | 6.19% (inactive)
13 | Cc1ccc2ccc(C(c3ccccn3)N3CCN(C)CC3)c(O)c2n1 (stereo unspecified) | 101%
14 | Oc1c(C(NC2CCCCC2)c2ccccn2)ccc2cccnc12 (stereo unspecified) | 106%
15 | CN1CCN(C(c2ccc3cccnc3c2O)c2ncccc2C(F)(F)F)CC1 (stereo unspecified) | 102%
16 | Oc1c(C(c2ccccn2)N2CCC(Cc3ccccc3)CC2)cc(Cl)c2cccnc12 (stereo unspecified) | 89.3%
17 | CN1CCN(Cc2cc(Cl)c3cccnc3c2O)CC1 | 73.1%
18 | CC(C)(C)OC(=O)N1CCN(C(c2ccccn2)c2cc(Cl)c3cccnc3c2O)CC1 (stereo unspecified) | 90.5%

Row | Structure (SMILES) | inhibition
19 | CC1CCN(C(c2ccccn2)c2cc(Cl)c3cccnc3c2O)CC1 (stereo unspecified) | 104%
20 | CN1CCN(C(c2nccs2)c2cc(Cl)c3cccnc3c2O)CC1 (stereo unspecified) | 103%
21 | CN1CCN(C(c2ccncc2)c2cc(Cl)c3cccnc3c2O)CC1 (stereo unspecified) | 45% (inactive)
22 | Oc1c(C(c2ccccn2)N2CCCC2)ccc2cccnc12 (stereo unspecified) | 107%
23 | Cc1ccnc(C(c2ccc3cccnc3c2O)N2CCN(C)CC2)c1 (stereo unspecified) | 104%
24 | CN1CCN(C(c2ccccn2)c2cc(Cl)c3ccccc3c2O)CC1 (stereo unspecified) | 27.2% (inactive)
25 | Oc1c(Cc2ccccn2)ccc2cccnc12 | 102%
26 | CCOC(c1ccccn1)c1cc(Cl)c2cccnc2c1O (stereo unspecified) | 99%
27 | COCOc1c(C(c2ccccn2)N2CCN(C)CC2)ccc2cccnc12 (stereo unspecified) | 66.1% (inactive)
28 | COc1ccnc(C(c2ccc3cccnc3c2O)N2CCN(C)CC2)c1 (stereo unspecified) | 104%
29 | CN1CCN(C(c2cccs2)c2cc(Cl)c3cccnc3c2O)CC1 (stereo unspecified) | 88.6%
30 | Oc1c(C(c2ccccn2)N2CCNCC2)cc(Cl)c2cccnc12 (stereo unspecified) | 83.5%
31 | CN1CCN(C(c2ncccn2)c2ccc3cccnc3c2O)CC1 (stereo unspecified) | 93.8%
32 | Oc1c(CN2CCN(c3ccccn3)CC2)cc(Cl)c2cccnc12 | 102%
33 | Cc1cccnc1C(c1ccc2cccnc2c1O)N1CCN(C)CC1 (stereo unspecified) | 99.9%
34 | Oc1c(CN2CCN(c3ccccc3)CC2)cc(Cl)c2cccnc12 | 100%
35 | CN1CCN(C(c2ccccn2)c2cc(Cl)c3cccnc3c2O)CC1 (stereo unspecified) | 98.4%
36 | CN1CCN(C(c2ccccn2)c2ccc3cccnc3c2O)CC1 (stereo unspecified) | 100%
